The values that follow are results of earlier work, collected in patent publication US10342775B2, “Vitamin A for parenteral administration” (FRESENIUS KABI DEUTSCHLAND GMBH, priority 2015, dated 2019).

Take `CCCCCCCCCCCCCCCC(=O)OC/C=C(C)/C=C/C=C(C)/C=C/C1=C(C)CCCC1(C)C` [retinol palmitate]: the solubility in water entry is reported as “practically insoluble in water”.
